# Measured values as given in the NIST ThermoML archive (doi:10.1021/je600557n).
# Numbers after ± are expanded uncertainties.
# Experiments:
# [1] = refractive index (Na D-line) (dimensionless); settings: 101.33 kPa, Liquid, Standard Abbe refractometry
# [2] = molar heat capacity at constant pressure; settings: 101.33 kPa, Liquid, Small sample (50 mg) DSC
# [3] = 101.33 kPa, Liquid
Structure (SMILES),refractive index ([1]; 293.15 K),refractive index ([1]; 303.15 K),refractive index ([1]; 313.15 K),molar heat capacity at constant pressure ([2]; 288.15 K),molar heat capacity at constant pressure ([2]; 293.15 K),molar heat capacity at constant pressure ([2]; 298.15 K),molar heat capacity at constant pressure ([2]; 303.15 K),molar heat capacity at constant pressure ([2]; 308.15 K),molar heat capacity at constant pressure ([2]; 313.15 K),molar heat capacity at constant pressure ([2]; 318.15 K),molar heat capacity at constant pressure ([2]; 323.15 K),mass density ([3]; 293.15 K),viscosity ([3]; 293.15 K),mass density ([3]; 303.15 K),viscosity ([3]; 303.15 K),mass density ([3]; 313.15 K),viscosity ([3]; 313.15 K)
C[S+](C)[O-] [dimethyl sulfoxide],1.4815 ± 0.0007,1.475 ± 0.0007,1.4706 ± 0.0006,149.9 ± 2.3 J/K/mol,150.4 ± 2.3 J/K/mol,151.5 ± 2.3 J/K/mol,152.2 ± 2.4 J/K/mol,152.9 ± 2.4 J/K/mol,153.7 ± 2.4 J/K/mol,154.7 ± 2.4 J/K/mol,155.6 ± 2.4 J/K/mol,1100.42 ± 0.23 kg/m3,2.213 ± 0.033 mPa·s,1090.41 ± 0.22 kg/m3,1.812 ± 0.027 mPa·s,1080.26 ± 0.21 kg/m3,1.513 ± 0.023 mPa·s
CC1CCCO1 (stereo unspecified) [2-methyltetrahydrofuran],1.4085 ± 0.0008,1.4017 ± 0.0007,1.3959 ± 0.0007,153.5 ± 2.4 J/K/mol,155.3 ± 2.4 J/K/mol,156.9 ± 2.4 J/K/mol,158.7 ± 2.5 J/K/mol,160.2 ± 2.5 J/K/mol,162.1 ± 2.5 J/K/mol,164.2 ± 2.5 J/K/mol,166.2 ± 2.6 J/K/mol,853.15 ± 0.68 kg/m3,0.492 ± 0.008 mPa·s,842.8 ± 0.7 kg/m3,0.443 ± 0.008 mPa·s,832.44 ± 0.72 kg/m3,0.416 ± 0.007 mPa·s
C1CCOCC1 [tetrahydropyran],1.4235 ± 0.0008,1.4171 ± 0.0007,1.4119 ± 0.0007,143.4 ± 2.2 J/K/mol,145.2 ± 2.3 J/K/mol,147.8 ± 2.3 J/K/mol,150.2 ± 2.3 J/K/mol,152.6 ± 2.4 J/K/mol,156 ± 2.4 J/K/mol,157.6 ± 2.4 J/K/mol,159.9 ± 2.5 J/K/mol,883.79 ± 0.62 kg/m3,0.875 ± 0.014 mPa·s,873.95 ± 0.64 kg/m3,0.752 ± 0.012 mPa·s,863.62 ± 0.66 kg/m3,0.658 ± 0.011 mPa·s
